Reference: ChEMBL document CHEMBL1201862, “PubChem BioAssay data set” (2004)
Activity calls are given as the source filed them.

Tests used:
Cytochrome P450 2C9 = Cytochrome P450 2C9 (Homo sapiens, UniProt P11712)
[1] = Trypanosoma cruzi growth suppression in host cells – NIH3T3 host cells, beta-gal luminescence, confirmation (AID 2044); format: functional, cell-based;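 note: intracellular parasites grown in NIH/3T3 mouse fibroblasts as host cells; luminescent beta-galactosidase reporter signal from transgenic T. cruzi replicating inside host cells; inhibitors lower the luminescence signal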
[2] = NIH3T3 cell viability loss – ATP luminescence, mouse fibroblasts, counter-screen, dose response (AID 2010); format: functional, cell-based;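 note: cells exposed to compound for about 90 hours before reading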
[3] = target: T1, Short transient receptor potential channel 4 (Mus musculus, UniProt Q9QUQ5); assay: block of DAMGO-driven TRPC4 calcium entry – cell-based, HEK293 TRPC4/mu-opioid, Fluo-4 calcium, dose response (AID 434942); format: functional;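 note: potency of inhibitors blocking the TRPC4 calcium response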
T1 sequence (Q9QUQ5 whole entry): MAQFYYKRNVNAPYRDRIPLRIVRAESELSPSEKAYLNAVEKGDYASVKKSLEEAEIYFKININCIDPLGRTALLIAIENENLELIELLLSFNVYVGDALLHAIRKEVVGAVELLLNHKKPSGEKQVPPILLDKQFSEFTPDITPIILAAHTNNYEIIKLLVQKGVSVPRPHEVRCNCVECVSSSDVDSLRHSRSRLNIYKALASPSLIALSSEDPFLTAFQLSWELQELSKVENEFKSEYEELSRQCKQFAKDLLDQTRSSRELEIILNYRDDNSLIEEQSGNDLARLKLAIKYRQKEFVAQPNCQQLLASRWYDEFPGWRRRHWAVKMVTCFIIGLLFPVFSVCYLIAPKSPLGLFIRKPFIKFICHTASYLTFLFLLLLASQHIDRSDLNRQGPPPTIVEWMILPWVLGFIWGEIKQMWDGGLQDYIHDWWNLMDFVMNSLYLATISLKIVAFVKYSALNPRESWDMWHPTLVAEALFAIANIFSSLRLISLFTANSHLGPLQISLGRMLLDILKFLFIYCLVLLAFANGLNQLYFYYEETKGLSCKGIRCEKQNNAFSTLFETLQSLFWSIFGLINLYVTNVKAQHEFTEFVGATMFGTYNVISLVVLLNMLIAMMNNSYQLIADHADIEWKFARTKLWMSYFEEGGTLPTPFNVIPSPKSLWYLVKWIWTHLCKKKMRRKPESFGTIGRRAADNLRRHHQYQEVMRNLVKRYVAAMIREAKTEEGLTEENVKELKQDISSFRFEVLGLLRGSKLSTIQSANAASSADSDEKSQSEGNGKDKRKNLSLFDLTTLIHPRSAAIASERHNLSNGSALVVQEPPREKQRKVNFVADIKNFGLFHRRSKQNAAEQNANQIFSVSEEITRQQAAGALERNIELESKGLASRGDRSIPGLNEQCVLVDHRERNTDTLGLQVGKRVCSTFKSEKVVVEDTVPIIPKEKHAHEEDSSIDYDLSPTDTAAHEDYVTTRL

[4] = blockers of HIV-1 envelope-mediated cell-cell fusion – cherry-pick, dose response (AID 652057); format: functional, cell-based
[5] = blockers of HIV-1 ZM109 envelope-driven cell-cell fusion – HeLa effector, CEM target cells, luciferase, cherry-pick, dose response (AID 652058); format: functional, cell-based;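 note: luciferase signal from HIV-1 Env mediated cell-cell fusion of effector and target cells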
[6] = off-target signal loss in HeLa-CEM21 co-culture – HeLa F-luc CTL cells, cherry-picked, counter-screen for HIV-1 Env fusion inhibitor project, dose response (AID 652040); format: functional, cell-based;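 note: potency for signal decrease marking cytotoxic or nonspecific inhibition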
[7] = HIV-1 AD8 envelope cell-cell fusion blockers – cherry-pick, dose response (AID 652062); format: functional, cell-based;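 note: luciferase signal from cell-cell fusion driven by HIV-1 clade B AD8 Env; potency is for inhibitors of fusion seen as a drop in luminescence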
Cytochrome P450 2C19 = Cytochrome P450 2C19 (Homo sapiens, UniProt P33261); assay: Cytochrome panel assay with activity outcomes. Panel member name: p450-cyp2c19 Compounds with AC50 equal or less than 10 uM are considered active; format: functional; settings: read-out: AC50
Cytochrome P450 1A2 = target: T2, Cytochrome P450 1A2 (Homo sapiens, UniProt P05177);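 note: PubChem cytochrome P450 panel assay, CYP1A2 panel member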
T2 sequence (P05177 whole entry): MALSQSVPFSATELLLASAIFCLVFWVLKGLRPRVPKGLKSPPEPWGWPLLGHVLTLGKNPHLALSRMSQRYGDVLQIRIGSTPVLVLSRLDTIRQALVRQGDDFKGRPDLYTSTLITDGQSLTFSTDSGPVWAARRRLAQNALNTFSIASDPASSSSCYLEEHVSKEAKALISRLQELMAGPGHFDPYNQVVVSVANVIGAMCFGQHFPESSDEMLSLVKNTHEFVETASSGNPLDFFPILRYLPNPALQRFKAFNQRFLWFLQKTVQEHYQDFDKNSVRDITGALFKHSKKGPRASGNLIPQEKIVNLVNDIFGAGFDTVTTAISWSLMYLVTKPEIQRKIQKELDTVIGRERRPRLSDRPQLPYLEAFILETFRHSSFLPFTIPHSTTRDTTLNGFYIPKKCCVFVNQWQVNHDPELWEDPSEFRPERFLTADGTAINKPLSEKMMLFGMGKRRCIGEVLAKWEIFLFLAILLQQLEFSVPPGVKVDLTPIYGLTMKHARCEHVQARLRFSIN

[8] = target: T3, Ubiquitin-conjugating enzyme E2 N (Homo sapiens, UniProt P61088); format: functional;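 note: Dose-response confirmation in a TR-FRET assay detecting UBC13-driven polyubiquitin chain formation, inhibition measured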
T3 sequence (P61088 whole entry): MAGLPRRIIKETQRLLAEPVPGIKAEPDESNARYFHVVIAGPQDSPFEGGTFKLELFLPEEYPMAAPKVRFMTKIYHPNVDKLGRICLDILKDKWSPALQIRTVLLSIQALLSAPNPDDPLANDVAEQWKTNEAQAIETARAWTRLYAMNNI

[9] = P. falciparum Dd2 growth inhibitors, dose response, SYBR Green, cherry-picked samples (AID 1159567); format: functional, cell-based
[10] = toxicity to human hepatoma HepG2 cells – cell-based, cherry-picked samples, cytotoxicity control, dose response (AID 1159577); format: functional
[11] = Luminescence Cell-Based Dose Confirmation HTS to Identify Activators of 5'UTR Stem-Loop Driven Alpha-Synuclein mRNA Translation in H4 Neuroglioblastoma Cells. [Related pubchem assays: 1829 (Project Summary), 1814 (Primary HTS)]; format: functional
[12] = Luminescence Cell-Based Dose Response HTS to Identify Activators of Luciferase Translation or Activity in H4 […] Cells. [Related pubchem assays: 1829 (Project Summary), 1814 (Primary HTS)]; format: functional
H4 = assay: Luminescence Cell-Based Dose Response HTS to Identify Activators of 5'UTR Stem-Loop Driven Prion Protein mRNA Translation in H4 Neuroglioblastoma Cells. [Related pubchem assays: 1829 (Project Summary), 1814 (Primary HTS)]; format: functional; settings: Homo sapiens
Cytochrome P450 2D6 = Cytochrome P450 2D6 (Homo sapiens, UniProt P10635);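 note: CYP2D6 member of a cytochrome P450 panel assay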
Cytochrome P450 3A4 = Cytochrome P450 3A4 (Homo sapiens, UniProt P08684);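 note: CYP3A4 tested as one member of a cytochrome P450 panel screen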
[13] = target: T4, DNA repair protein RAD52 homolog (Homo sapiens, UniProt P43351); format: functional, biochemical
T4 sequence (P43351 whole entry): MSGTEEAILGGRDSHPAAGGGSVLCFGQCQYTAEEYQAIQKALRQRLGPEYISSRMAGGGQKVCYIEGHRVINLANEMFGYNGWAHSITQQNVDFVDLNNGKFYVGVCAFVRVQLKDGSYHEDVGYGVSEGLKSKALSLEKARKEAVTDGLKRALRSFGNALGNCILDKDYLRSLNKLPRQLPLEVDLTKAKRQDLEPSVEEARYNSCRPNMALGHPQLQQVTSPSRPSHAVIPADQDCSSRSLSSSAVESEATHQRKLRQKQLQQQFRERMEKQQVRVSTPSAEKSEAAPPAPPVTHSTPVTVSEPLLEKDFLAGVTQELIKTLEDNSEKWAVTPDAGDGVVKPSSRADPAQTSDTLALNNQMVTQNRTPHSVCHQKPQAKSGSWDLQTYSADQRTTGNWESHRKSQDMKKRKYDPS

[14] = viability of uninfected HEp-2 cells – cell-based, HTS, cytotoxicity control for RSV inhibitor project, dose response (AID 2410); format: functional; settings: human respiratory syncytial virus
[15] = system: Streptococcus sp. 'group A'; assay: Streptococcus pyogenes SK(-)GAS viability under kanamycin – luminescence, BacTiterGlo, confirmation, counter-screen for streptokinase expression inhibitor project, dose response (AID 1900); format: functional, organism-based
Streptokinase A = target: T5, Streptokinase A (Streptococcus pyogenes serotype M1, UniProt P10520); assay: viability-normalized secreted streptokinase activity reduction – plasminogen activation absorbance, OD405, dose response (AID 1914); format: functional, Streptococcus pyogenes M1 GAS;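 note: secreted streptokinase activity via plasminogen activation per viability signal from cell pellet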
T5 sequence (P10520 whole entry): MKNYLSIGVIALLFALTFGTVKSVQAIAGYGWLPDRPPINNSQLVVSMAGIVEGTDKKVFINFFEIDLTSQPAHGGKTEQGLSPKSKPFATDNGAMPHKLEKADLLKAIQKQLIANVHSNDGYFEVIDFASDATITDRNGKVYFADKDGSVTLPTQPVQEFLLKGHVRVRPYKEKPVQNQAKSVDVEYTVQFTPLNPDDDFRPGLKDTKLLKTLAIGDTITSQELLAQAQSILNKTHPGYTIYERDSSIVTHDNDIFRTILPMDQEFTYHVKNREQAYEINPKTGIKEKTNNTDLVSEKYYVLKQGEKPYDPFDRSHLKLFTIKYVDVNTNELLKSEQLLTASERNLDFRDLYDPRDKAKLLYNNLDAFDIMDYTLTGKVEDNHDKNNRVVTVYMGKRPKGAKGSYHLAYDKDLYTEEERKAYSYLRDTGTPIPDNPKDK

Large T antigen = Large T antigen (Simian virus 40, UniProt P03070); format: functional, Betapolyomavirus macacae;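 note: Confirmatory-stage PubChem screen for compounds that inhibit SV40 T antigen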
[16] = microbe, parasite or virus in culture; format: functional; settings: Mycobacterium tuberculosis
Streptococcus = assay: GAS UMAA2166 growth inhibition – luminescence, BacTiterGlo, counter-screen for streptokinase expression inhibitor project, dose response (AID 1915); format: functional, organism-based;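 note: potency for reduction of bacterial viability or growth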
INS1 = assay: INS-1E survival protection against cytokine death – cell-based, luminescence, retest, dose response (AID 449756); format: functional; settings: Rattus norvegicus, INS1;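 note: cell death triggered by IL-1 beta plus TNF-alpha plus IFN-gamma mixture; protective hits raise ATP signal compared with cytokine alone wells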

Cytochrome P450 2C9, sequence (P11712 whole entry): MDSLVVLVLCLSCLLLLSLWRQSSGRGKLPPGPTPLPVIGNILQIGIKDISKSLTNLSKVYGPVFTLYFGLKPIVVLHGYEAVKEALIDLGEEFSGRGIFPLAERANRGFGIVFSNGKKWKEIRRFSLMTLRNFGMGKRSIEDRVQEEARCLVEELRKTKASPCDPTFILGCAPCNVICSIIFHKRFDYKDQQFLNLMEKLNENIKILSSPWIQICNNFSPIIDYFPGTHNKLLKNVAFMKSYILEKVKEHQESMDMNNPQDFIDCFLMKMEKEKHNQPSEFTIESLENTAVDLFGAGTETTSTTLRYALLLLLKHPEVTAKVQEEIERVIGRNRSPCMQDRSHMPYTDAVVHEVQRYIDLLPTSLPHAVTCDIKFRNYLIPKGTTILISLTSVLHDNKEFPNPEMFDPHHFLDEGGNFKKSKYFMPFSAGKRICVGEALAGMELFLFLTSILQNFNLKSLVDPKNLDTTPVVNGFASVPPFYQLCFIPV
Cytochrome P450 2C19, sequence (P33261 whole entry): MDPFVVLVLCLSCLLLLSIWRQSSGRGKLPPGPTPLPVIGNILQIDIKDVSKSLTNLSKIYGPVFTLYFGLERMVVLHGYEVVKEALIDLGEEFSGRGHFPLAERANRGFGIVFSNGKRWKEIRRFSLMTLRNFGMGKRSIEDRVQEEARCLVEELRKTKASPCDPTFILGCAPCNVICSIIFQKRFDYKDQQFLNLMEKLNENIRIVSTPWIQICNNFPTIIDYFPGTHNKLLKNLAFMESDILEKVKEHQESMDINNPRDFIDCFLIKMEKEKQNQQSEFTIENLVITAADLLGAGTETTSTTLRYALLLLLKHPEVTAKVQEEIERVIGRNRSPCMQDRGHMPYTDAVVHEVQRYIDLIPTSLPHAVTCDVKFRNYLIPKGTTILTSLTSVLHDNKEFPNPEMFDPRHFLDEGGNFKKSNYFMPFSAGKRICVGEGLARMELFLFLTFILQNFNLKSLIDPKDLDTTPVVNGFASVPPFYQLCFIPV
Cytochrome P450 3A4, sequence (P08684 whole entry): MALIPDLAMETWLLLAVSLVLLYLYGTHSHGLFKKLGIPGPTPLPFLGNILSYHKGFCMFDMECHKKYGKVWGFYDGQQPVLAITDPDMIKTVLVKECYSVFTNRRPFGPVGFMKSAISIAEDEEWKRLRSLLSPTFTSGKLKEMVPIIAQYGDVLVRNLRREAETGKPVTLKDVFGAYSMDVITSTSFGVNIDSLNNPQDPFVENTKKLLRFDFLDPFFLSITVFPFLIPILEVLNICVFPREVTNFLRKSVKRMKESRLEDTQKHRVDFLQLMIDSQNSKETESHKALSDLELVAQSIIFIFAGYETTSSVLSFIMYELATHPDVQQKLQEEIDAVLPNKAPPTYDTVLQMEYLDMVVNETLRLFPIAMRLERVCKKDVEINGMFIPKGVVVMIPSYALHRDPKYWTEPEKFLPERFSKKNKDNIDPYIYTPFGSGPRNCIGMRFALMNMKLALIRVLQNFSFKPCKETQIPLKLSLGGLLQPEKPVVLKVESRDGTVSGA
Large T antigen, sequence (P03070 whole entry): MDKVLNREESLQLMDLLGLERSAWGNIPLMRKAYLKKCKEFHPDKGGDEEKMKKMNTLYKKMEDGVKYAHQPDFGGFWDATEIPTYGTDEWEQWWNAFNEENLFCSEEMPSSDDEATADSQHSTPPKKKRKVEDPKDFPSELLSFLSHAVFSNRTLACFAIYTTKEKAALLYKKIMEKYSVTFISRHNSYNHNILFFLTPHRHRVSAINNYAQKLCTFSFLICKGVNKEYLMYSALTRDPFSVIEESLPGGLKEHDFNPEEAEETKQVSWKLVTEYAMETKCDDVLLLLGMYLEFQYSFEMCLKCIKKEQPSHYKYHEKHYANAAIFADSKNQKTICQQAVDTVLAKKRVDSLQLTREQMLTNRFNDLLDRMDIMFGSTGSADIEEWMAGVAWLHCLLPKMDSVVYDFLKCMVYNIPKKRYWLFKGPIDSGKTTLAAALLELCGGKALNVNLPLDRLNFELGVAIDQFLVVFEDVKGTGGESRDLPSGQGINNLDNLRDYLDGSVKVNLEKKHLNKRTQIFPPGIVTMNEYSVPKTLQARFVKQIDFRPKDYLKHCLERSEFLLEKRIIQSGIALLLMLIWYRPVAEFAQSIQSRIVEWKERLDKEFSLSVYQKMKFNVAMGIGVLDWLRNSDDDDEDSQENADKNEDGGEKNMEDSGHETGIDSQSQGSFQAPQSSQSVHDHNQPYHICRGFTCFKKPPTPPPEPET
Cytochrome P450 2D6, sequence (P10635 whole entry): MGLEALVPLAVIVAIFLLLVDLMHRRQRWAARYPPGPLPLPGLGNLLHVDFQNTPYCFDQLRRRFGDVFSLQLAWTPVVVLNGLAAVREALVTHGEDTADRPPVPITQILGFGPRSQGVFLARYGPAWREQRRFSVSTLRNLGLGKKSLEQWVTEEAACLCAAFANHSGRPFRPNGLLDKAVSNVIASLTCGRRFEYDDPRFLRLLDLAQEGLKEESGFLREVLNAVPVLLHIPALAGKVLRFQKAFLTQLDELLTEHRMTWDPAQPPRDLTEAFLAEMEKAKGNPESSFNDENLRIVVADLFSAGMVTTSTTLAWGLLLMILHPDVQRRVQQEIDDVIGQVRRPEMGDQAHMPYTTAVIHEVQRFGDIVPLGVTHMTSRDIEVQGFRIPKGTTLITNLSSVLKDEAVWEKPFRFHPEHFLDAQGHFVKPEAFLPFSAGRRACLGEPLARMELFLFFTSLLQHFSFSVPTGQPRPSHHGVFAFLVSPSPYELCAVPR

## CN1[C@@H]2CC[C@H]1CC(O)C2 (stereo partly specified)
Cytochrome P450 2C9
  AC50: inconclusive

## Cc1cc(-c2cn3ccccc3n2)c(C)n1-c1ccccc1
[1]
  EC50: 1.43 µM (active)
[2]
  EC50: > 30 µM (not active)
[3]
  EC50: 7.5 µM (active)

## CCOc1ccccc1N(C(=O)CNC(=O)c1ccco1)C(C(=O)NC1CCCC1)c1cccnc1 (stereo unspecified)
[4]
  AC50: 7.37 µM (active)
[5]
  AC50: 6.15 µM (active)
[6]
  AC50: 9.65 µM (active)
[7]
  AC50: 3.91 µM (active)

## Fc1cccc(Cl)c1CSc1nc[nH]n1
Cytochrome P450 2C19
  AC50: 39.8 µM (inconclusive)
Cytochrome P450 1A2
  AC50: 10 µM (inconclusive)
Cytochrome P450 2C9
  AC50: inconclusive

## Cc1cccc(C)c1N1CCc2c[nH]nc21
[3]
  EC50: 7.5 µM (active)

## O=C(CCCCCN1C(=O)c2ccccc2C1=O)NCCc1nc2ccccc2[nH]1
[8]
  IC50: > 20 µM (inactive)

## COc1ccc2c(c1)[C@H]1[C@H](CO2)[C@H](c2ccccc2)[C@]2(C)C(=O)Nc3cc(OC)c(OC)cc3C(=O)N12
[4]
  AC50: 16.1 µM (active)
[5]
  AC50: 18.9 µM (active)
[6]
  AC50: 25.6 µM (active)
[7]
  AC50: 27.3 µM (active)

## CCOc1ccc(NS(=O)(=O)c2ccc(C(=O)N(C)CCc3ccc(OC)c(OC)c3)cc2)cc1
[4]
  AC50: 3.4 µM (active)
[5]
  AC50: 2.58 µM (active)
[6]
  AC50: 4.78 µM (active)
[7]
  AC50: 5.92 µM (active)

## C[C@H](CO)N1C[C@H](C)[C@H](CN(C)S(=O)(=O)c2ccc(F)cc2)Oc2ncc(/C=C/c3ccccc3)cc2C1=O
[4]
  AC50: 16.5 µM (active)
[5]
  AC50: 13.9 µM (active)
[7]
  AC50: 28.3 µM (active)

## O=C(C1CCCC1)N1CC(=O)N2[C@@H](CO)[C@H](c3ccc(C#CCc4ccccc4)cc3)[C@@H]2C1
[9]
  AC50: 2.47 µM (active)
[10]
  AC50: 8.92 µM (active)

## O=C(C1CCN(S(=O)(=O)c2cccc3cccnc23)CC1)N1CCN(c2ccccn2)CC1
Cytochrome P450 2C19
  AC50: 7.08 µM (inconclusive)
Cytochrome P450 1A2
  AC50: 20 µM (inconclusive)
Cytochrome P450 2C9
  AC50: inconclusive

## CCOc1ccc2nc(SCc3ccccc3C#N)sc2c1
[11]
  EC50: 1.1 µM (active)
[12]
  EC50: 0.884 µM (active)
H4
  EC50: 0.7 µM (active)
Cytochrome P450 2D6
  AC50: 17.8 µM (inconclusive)
Cytochrome P450 3A4
  AC50: 12.6 µM (inconclusive)
Cytochrome P450 2C9
  AC50: inconclusive

## Cc1cc(C)c2nc(NCCCNC(=S)NCCCN(C)C)c(C#N)cc2c1
[8]
  IC50: > 20 µM (inactive)
[13]
  AC50: 7.63 µM (active)

## COc1ccc2c3c(n(C)c2c1)[C@H](CO)NCC31CCN(S(=O)(=O)c2cccc(F)c2)CC1
[9]
  AC50: 4.66 µM (active)
[10]
  AC50: > 39 µM (inactive)

## CC(C)(C)CN1CCNC[C@H]1Cc1cccc2ccccc12
[8]
  IC50: > 20 µM (inactive)

## Cc1ccc(S(=O)(=O)O/N=C2/CCCc3occc32)cc1
Cytochrome P450 2C19
  AC50: 35.5 µM (inconclusive)
Cytochrome P450 2C9
  AC50: inconclusive

## COc1cc(-c2nc3oc4ccccc4c(=O)c3c(=O)n2Cc2ccco2)cc(OC)c1OC
[14]
  CC50: > 50 µM (active)
[4]
  AC50: 2.38 µM (active)
[5]
  AC50: 0.584 µM (active)
[6]
  AC50: 5.7 µM (active)
[7]
  AC50: 4.1 µM (active)

## O/N=C/c1ccccc1Oc1ccc(Cl)cc1
[3]
  EC50: 6.68 µM (active)

## O=C(CSc1nc2nncc-2c(O)n1-c1ccccc1Br)NCc1ccccc1Cl
[3]
  EC50: 2.99 µM (active)

## COc1cnc(-c2ccccn2)nc1Oc1ccc(Cl)c2ccccc12
[15]
  EC50: 1.77 µM (active)
Streptokinase A
  EC50: > 150 µM (not active)
Large T antigen
  IC50: 7.48 µM (active)
[16]
  CC50: 16.9 µM (active)
Streptococcus
  EC50: 20.1 µM (inconclusive)
INS1
  AC50: 4.86 µM (active)

## CC(C)(CCc1nc2ccccc2[nH]1)C(=O)O
Cytochrome P450 2C9
  AC50: inconclusive
